In ChEMBL document CHEMBL1139588, “Ketoheterocycle-based inhibitors of cathepsin K: a novel entry into the synthesis of peptidic ketoheterocycles” (Bioorg Med Chem Lett, 2005):

Tests used:
Cathepsin K = target: T1, Cathepsin K (Homo sapiens, UniProt P43235); assay: Inhibition of 10 uM Cbz-Phe-Arg-AMC binding to human cathepsin K by fluorescence assay
T1 sequence (P43235 whole entry): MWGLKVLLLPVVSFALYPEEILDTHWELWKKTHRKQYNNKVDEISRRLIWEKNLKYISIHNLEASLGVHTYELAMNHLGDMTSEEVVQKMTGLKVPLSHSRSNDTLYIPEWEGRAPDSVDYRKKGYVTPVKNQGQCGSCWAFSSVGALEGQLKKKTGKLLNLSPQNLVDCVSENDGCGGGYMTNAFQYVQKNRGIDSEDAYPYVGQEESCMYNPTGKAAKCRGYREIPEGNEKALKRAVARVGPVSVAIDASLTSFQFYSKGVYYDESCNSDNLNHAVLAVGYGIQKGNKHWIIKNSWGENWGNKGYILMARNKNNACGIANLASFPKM

[1] = target: T2, Cathepsin K (Homo sapiens) (UniProt P43235); assay: Percentage inhibition of 10 uM Cbz-Phe-Arg-AMC binding to human cathepsin K at 12.6 uM by fluorescence assay
T2 sequence (whole entry): T1 sequence (P43235 whole entry)

[2] = target: Cathepsin (L and K) (Homo sapiens) (UniProt P43235+P07711); assay: Ratio of inhibitory potency against cathepsins L and K using 5 uM Cbz-Phe-Arg-AMC in fluorescence assay; format: protein assay
Homo sapiens [3] = organism: Homo sapiens; assay: Ratio of inhibitory potency against cathepsins K and V using 2 uM Cbz-Phe-Arg-AMC in fluorescence assay
Homo sapiens [4] = organism: Homo sapiens; assay: Ratio of inhibitory potency against cathepsins K and S using 10 uM Cbz-Phe-Arg-AM in fluorescence assay
Homo sapiens [5] = organism: Homo sapiens; assay: Ratio of inhibitory potency against cathepsins K and B using 10 uM Cbz-Phe-Arg-AMC in fluorescence assay

Chain of Cathepsin (L and K) (Homo sapiens) (P07711 whole entry, looked up, one chain of several): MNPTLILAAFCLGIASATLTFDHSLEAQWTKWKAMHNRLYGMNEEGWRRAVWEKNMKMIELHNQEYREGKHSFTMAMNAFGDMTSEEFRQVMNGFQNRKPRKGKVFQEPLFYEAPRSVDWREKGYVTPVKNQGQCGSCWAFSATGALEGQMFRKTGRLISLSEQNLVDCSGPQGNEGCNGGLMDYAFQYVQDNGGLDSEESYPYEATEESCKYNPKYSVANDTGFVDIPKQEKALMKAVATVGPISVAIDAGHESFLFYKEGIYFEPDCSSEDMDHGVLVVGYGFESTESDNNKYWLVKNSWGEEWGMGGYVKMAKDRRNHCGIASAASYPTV

Compound	IC50 (Cathepsin K) [µM]	inhibition [1] [%]	also measured
CCCC[C@H](NC(=O)O[C@@H](C)CC1CCCCC1)C(=O)c1nc(C(F)(F)F)cs1	13	–	–
CCOC(=O)c1csc(C(=O)CNC(=O)O[C@@H](C)CC2CCCCC2)n1	–	0	–
CCCC[C@H](NC(=O)OC(C(C)C)C(C)C)C(=O)c1ccccc1	–	2	–
CCCC[C@H](NC(=O)O[C@@H](C)CC1CCCCC1)C(=O)c1noc(C)n1	8.1	–	–
CCCC[C@H](NC(=O)OC(C(C)C)C(C)C)C(=O)c1cccs1	1.9	–	–
CCCC[C@H](NC(=O)O[C@@H](C)CC1CCCCC1)C(=O)c1nc(C)c(C(=O)OCC)s1	–	10	–
CCCC[C@H](NC(=O)O[C@@H](C)CC1CCCCC1)C(=O)c1nnc(-c2ccccc2)o1	4	–	–
CCCC[C@H](NC(=O)O[C@@H](C)CC1CCCCC1)C(=O)c1nc(-c2ccccc2)cs1	7.1	–	–
CCCC[C@H](NC(=O)O[C@@H](C)CC1CCCCC1)C(=O)c1nccs1	3.1	–	–
CCCOc1ccccc1C(=O)NCC(=O)c1nc(C(=O)OCC)cs1	> 13	–	–
CCCC[C@H](NC(=O)O[C@@H](C)CC1CCCCC1)C(=O)c1nc(C(=O)OCC)cs1	0.23	–	Ratio [2]: > 40; Ratio (Homo sapiens [3]): > 40; Ratio (Homo sapiens [4]): > 40; Ratio (Homo sapiens [5]): > 40

Continued, in another order:

IC50 (Cathepsin K) [µM]	inhibition [1] [%]	Compound	also measured
–	0	CCOC(=O)c1csc(C(=O)CNC(=O)OC(CC)Cc2ccccc2)n1 (stereo unspecified)	–
–	28	CCCC[C@H](NC(=O)OC(Cc1ccccc1)C(C)C)C(=O)c1nc(C(=O)OCC)cs1 (stereo partly specified)	–
> 13	–	CCCC[C@H](NC(=O)OC(CC)Cc1ccccc1)C(=O)c1nc(C(=O)OCC)cs1 (stereo partly specified)	–
–	31	CCCC[C@H](NC(=O)OC(Cc1ccccc1)CC(C)C)C(=O)c1nc(C(=O)OCC)cs1 (stereo partly specified)	–
13	–	CCCC[C@H](NC(=O)[C@H](CC(C)C)NC(=O)OCc1ccccc1)C(=O)c1nc(C(=O)OCC)cs1	–
–	20	CCOC(=O)c1csc(C(=O)CNC(=O)[C@H](CC(C)C)NC(=O)OCc2ccccc2)n1	–
